Test results reported in paper PMC8231400, “Synthesis, biological evaluation and molecular docking investigation of new sulphonamide derivatives bearing naphthalene moiety as potent tubulin polymerisation inhibitors” (Journal of Enzyme Inhibition and Medicinal Chemistry, 2021).

Assays:
[1] = test system: MCF-7 human breast cancer cells; assay: In vitro antiproliferative assay (CCK-8), MCF-7; format: cell-based; conditions: CCK-8, 48 h, mean of three experiments
Description: (§1) In vitro antiproliferative assay 179 Human breast cancer cell line (MCF -7) and human non-small cell lung 180 carcinoma cell line (A549) were used to determine the antiproliferative of 181 the test compounds by CCK -8 assay. The cells were cultured in RPMI 182 media with 10% fetal bovine serum at 37 °C and 5% CO2 in a humidify 183 environment. In a word, cells were seeded in 96 -well plates 184 (1×10^5 cells/well) and cultured for overnight. […] Finally, 186 cell viability was determined by the CCK -8 method. 187 1.3. […] 190 EGTA) with 1 mM GTP and 5% glycerol. Then the plate was 191 immediately transferred to the spectrophotometer and microtubule 192 polymerization was monitored under 340 nm at 37 °C every 1 min over 193 20 min. […] 196 then the cells were treated with different concentrations of compound 5c 7

[2] = test system: A549 human non-small cell lung carcinoma cells; assay: In vitro antiproliferative assay (CCK-8), A549; format: cell-based; conditions: CCK-8, 48 h, mean of three experiments
Description: as §1

[3] = Cytotoxicity against human normal liver cell line; format: cell-based; conditions: LO2 normal liver cells
[4] = test system: tubulin; assay: In vitro tubulin polymerisation inhibitory assay (absorbance 340 nm); format: biochemical; conditions: 37 °C, 20 min, read-out: IC50 tubulin polymerisation inhibition
Description: In vitro antiproliferative assay 179 Human breast cancer cell line (MCF -7) and human non-small cell lung 180 carcinoma cell line (A549) were used to determine the antiproliferative of 181 the test compounds by CCK -8 assay. The cells were cultured in RPMI 182 media with 10% fetal bovine serum at 37 °C and 5% CO2 in a humidify 183 environment. In a word, cells were seeded in 96 -well plates 184 (1×10^5 cells/well) and cultured for overnight. […] Finally, 186 cell viability was determined by the CCK -8 method. 187 1.3. […] 190 EGTA) with 1 mM GTP and 5% glycerol. Then the plate was 191 immediately transferred to the spectrophotometer and microtubule 192 polymerization was monitored under 340 nm at 37 °C every 1 min over 193 20 min.

[5] = test system: MCF-7 cancer cells; assay: Cell cycle assay by flow cytometry (PI); format: cell-based, human; conditions: 24 h
Description: Due to microtubules play an important role in eukaryotic cell division, tubulin polymerisation inhibitors can disrupt regulated cell cycle distribution and block the cell cycle in G2/M phase [21]^,[29]. Therefore, the effect of compound 5c on the cell cycle of MCF-7 cancer cells was evaluated by using flow cytometry. […] 172 51.01, 56.22, 60.63, 107.33, 125.00, 125.21, 125.24, 127.40, 128.17, […] HRMS (ESI) calcd for [M+Na] + 175 C26H24N2NaO7S+: 531.1196 found 531.1162. Elemental analysis for 176 C26H24N2O7S: C, 61.41; H, 4.76; N, 5.51; S, 6.30 found C, 61.52; H, 177 4.702; N, 5.21; S, 6.100. […] In vitro antiproliferative assay 179 Human breast cancer cell line (MCF -7) and human non-small cell lung 180 carcinoma cell line (A549) were used to determine the antiproliferative of 181 the test compounds by CCK -8 assay. The cells were cultured in RPMI 182 media with 10% fetal bovine serum at 37 °C and 5% CO2 in a humidify 183 environment. In a word, cells were seeded in 96 -well plates 184 (1×10^5 cells/well) and cultured for overnight. After incubation, the cells 185 were treated with test compounds and positive control for 48 h. Finally, 186 cell viability was determined by the CCK -8 method. 187 1.3. In vitro tubulin polymerization inhibitory assay 188 Tubulin protein was mixed with different concentrations of compound 5c […] 190 EGTA) with 1 mM GTP and 5% glycerol. Then the plate was 191 immediately transferred to the spectrophotometer and microtubule 192 polymerization was monitored under 340 nm at 37 °C every 1 min over 193 20 min. […] Cell cycle assay 195 MCF-7 cells were seeded into 6-well plates and incubated for 24 h, and 196 then the cells were treated with different concentrations of compound 5c 7 page 8: 197 for 24 h. After incubation, the cells were harvested by centrifugation, and 198 fixed in ice-cold 70% ethanol overnight. After removed the ethanol, the 199 cells were incubated with RNase and propidium iodide. Finally, the 200 samples were analyzed by flow cytometry. 201 1.5. Cell apoptosis assay […] 203 then the cells were treated with different concentrations of compound 5c 204 for 24 h. Subsequently, the cells were incubated with Annexin-V/FITC 205 binding buffer and PI staining solution at room temperature. Finally, the 206 stained cells were analyzed using flow cytometry. 207 1.6. Molecular docking 208 Molecular docking studies were performed to investigate the binding […] The 210 three-dimensional (3D) coordinate of tubulin (PDB ID: 1SA0) was 211 downloaded from Protein Data Bank (www.rcsb.org). The 3D structure of 212 the compounds was obtained by ChemBioDraw Ultra 14.0 and 213 ChemBio3D Ultra 14.0 softwares. The AutoDockTools 1.5.6 package was 214 employed to generate the docking input files. The search grid of tubulin 215 was identified as center_x: 118.921, center_y: 89.718, and center_z: 216 5.932 with dimensions size_x: 15, size_y: 15, and size_z: 15. The value 217 of exhaustiveness was set to 20. For Vina docking, the default parameters 218 were used if it was not mentioned. The best-scoring pose as judged by the 219 Vina docking score was chosen and visually analyzed using PyMoL 1.7.6 220 software (www.pymol.org). 221 1.7 Molecular dynamics 222 The Amber 12 1-3 and AmberTools 13 programs were used for MD 223 simulations of the selected docked pose. MBPPS was first prepared by 224 ACPYPE 4, a tool based on ANTECHAMBER 5, 6 for generating 8

[6] = test system: MCF-7 cancer cells; assay: Annexin V-FITC/PI cell apoptosis assay; format: cell-based, human; set-up: Q1 quadrant / Q2 quadrant (upper right, late apoptotic cells) / Q4 quadrant / Q3 quadrant (lower right, early apoptotic cells): unit not given here; conditions: 24 h
Description: Since many literatures have reported that tubulin polymerisation inhibitors are able to induce cellular apoptosis [22]^,[30], the Annexin V-FITC/PI assay was carried out to examine the influence of compound 5c on cell apoptosis in MCF-7 cancer cells. […]
201 1.5. Cell apoptosis assay
203 then the cells were treated with different concentrations of compound 5c
204 for 24 h. Subsequently, the cells were incubated with Annexin-V/FITC
205 binding buffer and PI staining solution at room temperature. Finally, the
206 stained cells were analyzed using flow cytometry.
207 1.6. […]

In the case of `COc1ccc(CN(c2cc(OC)c(OC)c(OC)c2)S(=O)(=O)c2ccc(OC)cc2)cc1` [5e], the IC50 ([1]; Homo sapiens, MCF7) is reported as 0.87 ± 0.05 µM and the IC50 ([2]; Homo sapiens, A549) is reported as 0.62 ± 0.04 µM.

For `COc1ccc(CN(c2cc(OC)c(OC)c(OC)c2)S(=O)(=O)c2ccc(C)cc2)cc1` [5a], the IC50 ([1]; Homo sapiens, MCF7) was 3.64 ± 0.25 µM and the IC50 ([2]; Homo sapiens, A549) was 5.34 ± 0.31 µM.

For `COc1cc(N(Cc2ccc(C)cc2)S(=O)(=O)c2cccc3ccccc23)cc(OC)c1OC` [8b], the IC50 ([1]; Homo sapiens, MCF7) was 2.2 ± 0.19 µM and the IC50 ([2]; Homo sapiens, A549) was 1.29 ± 0.19 µM.

With `COc1cc(N(Cc2ccc(C#N)cc2)S(=O)(=O)c2cccc3ccccc23)cc(OC)c1OC` [8h] the IC50 ([1]; Homo sapiens, MCF7) was > 30 µM and the IC50 ([2]; Homo sapiens, A549) was > 30 µM.

In the case of `COc1cc(N(Cc2ccc(F)cc2)S(=O)(=O)c2cccc3ccccc23)cc(OC)c1OC` [8g], the IC50 ([1]; Homo sapiens, MCF7) is reported as > 30 µM and the IC50 ([2]; Homo sapiens, A549) is reported as > 30 µM.

With `O=c1[nH]cc(F)c(=O)[nH]1` [5-Fu, 5-fluorouracil, reference compound] the IC50 ([1]; Homo sapiens, MCF7) was 11.6 ± 0.6 µM and the IC50 ([2]; Homo sapiens, A549) was 2.75 ± 0.31 µM.

With `COc1ccc(CN(c2cc(OC)c(OC)c(OC)c2)S(=O)(=O)c2cccc3ccccc23)cc1` [5c] the IC50 ([1]; Homo sapiens, MCF7) was 0.51 ± 0.03 µM, the IC50 ([2]; Homo sapiens, A549) was 0.33 ± 0.01 µM and the IC50 [3] was 12.7 ± 3.26 µM. The IC50 [4] was 2.8 µM, the G1 population ([5]; MCF-7, 0.125 μM) was 44.63% and the G2/M population ([5]; MCF-7, 0.125 μM) was 30.77%. It also gave a S population ([5]; MCF-7, 0.125 μM) of 24.59%, a G1 population ([5]; MCF-7, 0.25 μM) of 6.61% and a G2/M population ([5]; MCF-7, 0.25 μM) of 57.50%. The S population ([5]; MCF-7, 0.25 μM) was 35.89%, the G2/M population ([5]; MCF-7, 0.5 µM) was 82.22% and the G1 population ([5]; MCF-7, 0.50 μM) was 6.89%. The S population ([5]; MCF-7, 0.50 μM) was 10.89%, the Q1 quadrant ([6]; MCF-7, 0.125 μM) was 0.88 and the “Q2 quadrant (upper right, late apoptotic cells)” value ([6]; MCF-7, 0.125 μM) was 11.3. For the same compound, the “Q3 quadrant (lower right, early apoptotic cells)” value ([6]; MCF-7, 0.125 μM) was 7.37, the Q4 quadrant ([6]; MCF-7, 0.125 μM) was 80.4 and the “total numbers of early and late apoptotic cells” value (from here on “total numbers”) ([6]; MCF-7, 0.125 μM) was 18.67%. For the same compound, the Q1 quadrant ([6]; MCF-7, 0.25 μM) was 0.77, the “Q2 quadrant (upper right, late apoptotic cells)” value ([6]; MCF-7, 0.25 μM) was 12.6 and the “Q3 quadrant (lower right, early apoptotic cells)” value ([6]; MCF-7, 0.25 μM) was 20.5. The Q4 quadrant ([6]; MCF-7, 0.25 μM) was 66.1, the “total numbers” value ([6]; MCF-7, 0.25 μM) was 33.1% and the “total numbers” value ([6]; MCF-7, 0.5 µM) was 50.3%. For the same compound, the Q1 quadrant ([6]; MCF-7, 0.50 μM) was 0.58, the “Q2 quadrant (upper right, late apoptotic cells)” value ([6]; MCF-7, 0.50 μM) was 17.7 and the “Q3 quadrant (lower right, early apoptotic cells)” value ([6]; MCF-7, 0.50 μM) was 32.6. For the same compound, the Q4 quadrant ([6]; MCF-7, 0.50 μM) was 49.2.

With `COc1ccc(CN(c2cc(OC)c(OC)c(OC)c2)S(=O)(=O)c2ccccc2)cc1` [5b] the IC50 ([1]; Homo sapiens, MCF7) was > 30 µM and the IC50 ([2]; Homo sapiens, A549) was > 30 µM.

Work on `COc1ccc(/C=C\c2cc(OC)c(OC)c(OC)c2)cc1O` [CA-4, combretastatin A-4, reference compound] yielded an IC50 ([1]; Homo sapiens, MCF7) of 5.55 ± 0.11 µM and an IC50 ([2]; Homo sapiens, A549) of 0.029 ± 0.004 µM.

`N.N.[Cl][Pt][Cl]` [Cisplatin, reference compound] showed an IC50 [1] of 11.2 ± 0.75 µM and an IC50 [2] of 4.92 ± 0.46 µM.

With `COc1ccc(CN(c2cc(OC)c(OC)c(OC)c2)S(=O)(=O)c2ccc3ccccc3c2)cc1` [5d] the IC50 ([1]; Homo sapiens, MCF7) was 5.72 ± 0.18 µM and the IC50 ([2]; Homo sapiens, A549) was > 30 µM.

In the case of `COc1cc(N(Cc2cccc(F)c2)S(=O)(=O)c2cccc3ccccc23)cc(OC)c1OC` [8c], the IC50 ([1]; Homo sapiens, MCF7) is reported as > 30 µM and the IC50 ([2]; Homo sapiens, A549) is reported as > 30 µM.

Compound `COc1cc(N(Cc2ccc(Cl)cc2)S(=O)(=O)c2cccc3ccccc23)cc(OC)c1OC` [8e] has an IC50 ([1]; Homo sapiens, MCF7) of 15.6 ± 0.34 µM and an IC50 ([2]; Homo sapiens, A549) of 14.4 ± 0.8 µM.

For `COc1cc(N(Cc2ccccc2[N+](=O)[O-])S(=O)(=O)c2cccc3ccccc23)cc(OC)c1OC` [8i], the IC50 ([1]; Homo sapiens, MCF7) was > 30 µM and the IC50 ([2]; Homo sapiens, A549) was 4.76 ± 0.31 µM.

In the case of `COc1cccc(CN(c2cc(OC)c(OC)c(OC)c2)S(=O)(=O)c2cccc3ccccc23)c1` [8a], the IC50 ([1]; Homo sapiens, MCF7) is reported as 20 ± 0.71 µM and the IC50 ([2]; Homo sapiens, A549) is reported as > 30 µM.

In the case of `COc1cc(N(Cc2cccc(Br)c2)S(=O)(=O)c2cccc3ccccc23)cc(OC)c1OC` [8f], the IC50 ([1]; Homo sapiens, MCF7) is reported as > 30 µM and the IC50 ([2]; Homo sapiens, A549) is reported as > 30 µM.

With `COc1cc(N(Cc2ccc(Br)cc2)S(=O)(=O)c2cccc3ccccc23)cc(OC)c1OC` [8d] the IC50 ([1]; Homo sapiens, MCF7) was 8.02 ± 0.58 µM and the IC50 ([2]; Homo sapiens, A549) was > 30 µM.
